Biological target: T1, human apelin receptor (Homo sapiens, UniProt P35414)
T1 construct: expressed in transfected cells
T1 sequence (P35414 1-380): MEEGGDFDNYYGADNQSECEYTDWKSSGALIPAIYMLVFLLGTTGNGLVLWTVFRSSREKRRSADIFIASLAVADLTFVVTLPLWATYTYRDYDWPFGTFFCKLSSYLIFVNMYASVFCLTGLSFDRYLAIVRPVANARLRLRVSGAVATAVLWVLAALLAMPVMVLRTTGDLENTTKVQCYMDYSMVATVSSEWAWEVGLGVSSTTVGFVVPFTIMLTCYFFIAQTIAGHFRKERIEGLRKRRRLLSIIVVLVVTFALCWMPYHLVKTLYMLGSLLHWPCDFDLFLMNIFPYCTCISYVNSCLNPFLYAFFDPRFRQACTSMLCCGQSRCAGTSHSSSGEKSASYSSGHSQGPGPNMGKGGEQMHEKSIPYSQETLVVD
Assay: Determination of agonism on the human apelin receptor by a calcium fluorescence assay (FLIPR)
Type: cell-based
Settings: HEK293 cells stably transfected with human apelin receptor and Giaq protein, Fluo-4 calcium fluorescence, read-out: EC50 (APJ agonism)
Text: Determination of Agonism on the Human Apelin Receptor by a Calcium Fluorescence Assay (FLIPR)
The assay is based on the detection of intracellular calcium changes detected by the selective, calcium-chelating dye Fluo-4 (Molecular Probes). A large fluorescence intensity increase is observed upon calcium association with Fluo-4. The dye is delivered to the cell interior using an acetoxymethylester form of Fluo-4, where the intracellular esterase activity results in the charged species being released and trapped within the cytoplasm of the cell. […] By co-expressing the human apelin receptor and a promiscuous Giaq protein, agonism of the apelin receptor couples to phospholipase-C resulting in intracellular calcium mobilization.
The HEK293 cells were stably transfected with the human apelin receptor and the Giaq protein. Cells were selected and maintained in a log phase of growth at 37° and 5% CO2 in the Iscove's minimal essential medium, 10% fetal calf serum, 1× Penicillin-Streptomycin, 400 μg/mL G418. One day prior the assay, cells were passaged by accutase and plated at a density of 50,000 cells/well onto a 96-well plates with black border but clear bottom (Costar, cat#3904) in a final volume of 200 μl growth medium.
In order to load the cells the next day with the calcium-sensitive dye, growth medium was carefully replaced by dye solution (100 μl/well) containing Fluo-4 (4 μM) in basic measurement buffer (135 mM NaCl, 5 mM KCl, 1 mM magnesium sulphate, 5 mM glucose, 20 mM Hepes, 2.5 mM probenecid; adjusted to pH 7.4). Cells were incubated for 1 h at 37° C., and then washed 3× with buffer containing no dye. The washer was programmed to leave a remaining volume of 150 μl after the third wash in the plate.
During the dye-loading of the cells, a serial compound dilution was performed in a separate 96-well plate with overall 4× increased concentrations. Small aliquots of DMSO stock solutions of the compounds (10 mM in 100% DMSO were aliquoted into 150 μl buffer in the first rows of the 96-well plates, and then serially diluted by a factor of 1:3 transferring each time 30 μl to the next rows already containing 60 μl buffer. All compounds were tested in a least 7 concentrations, each condition was performed in triplicates. As comparator, we used freshly prepared apelin-13 solutions, for which also a concentration-response curve was determined at each measurement day. The compound plate was incubated for 10 min after the final dilutions steps at 37° C. before transferring the dye-loaded cell plate and the compound plate into a FLIPR Tetra reader (Molecular Devices). Measurement within this reader started by pipetting the agonist solution (50 μl) on the cell plate. Overall perform 60 reads were performed with an interval of 2 sec. The maximum of the fluorescence transient was used to calculate the agonistic response of the cells. In order to normalize this response, which may vary from plate to plate we set the maximum fluorescence achieved by 1 μM apelin-13 on this plate as 100%.
EC-50 values for apelin-13 and the apelin receptor compounds described in this patent were determined by standard algorithms using a specific software package.

Row | EC50 | SMILES
1 | 0.117 µM | CCCC[C@H](NC(=O)c1ccc2c(c1)nc(Cc1cccs1)n2C1CCCCC1C)C(=O)O (stereo partly drawn) [Example 16, (S)-2-{[1-(2-Methyl-cyclohexyl)-2-thiophen-2-ylmethyl-1H-benzoimidazole-5-carbonyl]-amino}-hexanoic acid]
2 | 0.935 µM | O=C(N[C@@H](CC1CCCCC1)C(=O)O)c1ccc2c(c1)nc(Cc1cccs1)n2C1CCCCC1C(F)(F)F (stereo partly drawn) [Example 17, (S)-3-Cyclohexyl-2-{[2-thiophen-2-ylmethyl-1-(2-trifluoromethyl-cyclohexyl)-1H-benzoimidazole-5-carbonyl]-amino}-propionic acid]
3 | 0.15 µM | CCCC[C@H](NC(=O)c1ccc2c(c1)nc(Cc1cccs1)n2C(CC)CC)C(=O)O [Example 18, (S)-2-{[1-(1-Ethyl-propyl)-2-thiophen-2-ylmethyl-1H-benzoimidazole-5-carbonyl]-amino}-hexanoic acid]
4 | 5.03 µM | CCC(CC)n1c(Cc2cccs2)nc2cc(C(=O)N[C@@H](Cc3ccc(F)cc3)C(=O)O)ccc21 [Example 19, (S)-2-{[1-(1-Ethyl-propyl)-2-thiophen-2-ylmethyl-1H-benzoimidazole-5-carbonyl]-amino}-3-(4-fluoro-phenyl)-propionic acid]
5 | 1.83 µM | CCC(CC)n1c(Cc2cccs2)nc2cc(C(=O)N[C@@H](Cc3ccc(Cl)cc3)C(=O)O)ccc21 [Example 20, (S)-3-(4-Chloro-phenyl)-2-{[1-(1-ethyl-propyl)-2-thiophen-2-ylmethyl-1H-benzoimidazole-5-carbonyl]-amino}-propionic acid]
6 | 0.443 µM | CCC(CC)n1c(Cc2cccs2)nc2cc(C(=O)N[C@@H](CC3CC3)C(=O)O)ccc21 [Example 21, (S)-3-Cyclopropyl-2-{[1-(1-ethyl-propyl)-2-thiophen-2-ylmethyl-1H-benzoimidazole-5-carbonyl]-amino}-propionic acid]
7 | 0.08 µM | CCC(CC)n1c(Cc2cccs2)nc2cc(C(=O)N[C@@H](CC3CCC3)C(=O)O)ccc21 [Example 22, (S)-3-Cyclobutyl-2-{[1-(1-ethyl-propyl)-2-thiophen-2-ylmethyl-1H-benzoimidazole-5-carbonyl]-amino}-propionic acid]
8 | 0.106 µM | C[C@@H]1CCCC[C@H]1n1c(Cc2cccs2)nc2cc(C(=O)N[C@@H](CC3CCC3)C(=O)O)ccc21 [Example 23, (S)-3-Cyclobutyl-2-{[1-((1R,2R)-2-methyl-cyclohexyl)-2-thiophen-2-ylmethyl-1H-benzoimidazole-5-carbonyl]-amino}-propionic acid]
9 | 0.219 µM | CCC(CC)n1c(Cc2cccs2)nc2cc(C(=O)NC3(C(=O)O)CCCCC3)ccc21 [Example 24, 1-{[1-(1-Ethyl-propyl)-2-thiophen-2-ylmethyl-1H-benzoimidazole-5-carbonyl]-amino}-cyclohexanecarboxylic acid]
10 | 4.75 µM | CCCC(C)(NC(=O)c1ccc2c(c1)nc(Cc1cccs1)n2C(CC)CC)C(=O)O (stereo not drawn) [Example 25, 2-{[1-(1-Ethyl-propyl)-2-thiophen-2-ylmethyl-1H-benzoimidazole-5-carbonyl]-amino}-2-methyl-pentanoic acid]
11 | 5.3 µM | CCC(CC)n1c(Cc2cccs2)nc2cc(C(=O)NC(CCC(F)(F)F)C(=O)O)ccc21 (stereo not drawn) [Example 26, 2-{[1-(1-Ethyl-propyl)-2-thiophen-2-ylmethyl-1H-benzoimidazole-5-carbonyl]-amino}-5,5,5-trifluoro-pentanoic acid]
12 | 1.86 µM | C[C@@H]1CCCC[C@H]1n1c(Cc2cccs2)nc2cc(C(=O)NC(CCC(F)(F)F)C(=O)O)ccc21 (stereo partly drawn) [Example 27, 5,5,5-Trifluoro-2-{[1-((1R,2R)-2-methyl-cyclohexyl)-2-thiophen-2-ylmethyl-1H-benzoimidazole-5-carbonyl]-amino}-pentanoic acid]
13 | 18.5 µM | CCC(CC)n1c(Cc2cccs2)nc2cc(C(=O)NC(CCc3ccccc3)C(=O)O)ccc21 (stereo not drawn) [Example 28, 2-{[1-(1-Ethyl-propyl)-2-thiophen-2-ylmethyl-1H-benzoimidazole-5-carbonyl]-amino}-4-phenyl-butyric acid]
14 | 5.66 µM | CCC(CC)n1c(Cc2cccs2)nc2cc(C(=O)NC(CC3CCC(C)(C)CC3)C(=O)O)ccc21 (stereo not drawn) [Example 29, 3-(4,4-Dimethyl-cyclohexyl)-2-{[1-(1-ethyl-propyl)-2-thiophen-2-ylmethyl-1H-benzoimidazole-5-carbonyl]-amino}-propionic acid]
15 | 2.2 µM | CCc1ccc(CC(NC(=O)c2ccc3c(c2)nc(Cc2cccs2)n3C(CC)CC)C(=O)O)cc1 (stereo not drawn) [Example 30, 3-(4-Ethyl-phenyl)-2-{[1-(1-ethyl-propyl)-2-thiophen-2-ylmethyl-1H-benzoimidazole-5-carbonyl]-amino}-propionic acid]
16 | 4.11 µM | CCC(CC)n1c(Cc2cccs2)nc2cc(C(=O)NC(Cc3ccc(C(F)(F)F)cc3)C(=O)O)ccc21 (stereo not drawn) [Example 31, 2-{[1-(1-Ethyl-propyl)-2-thiophen-2-ylmethyl-1H-benzoimidazole-5-carbonyl]-amino}-3-(4-trifluoromethyl-phenyl)-propionic acid]
17 | 4.57 µM | CCC(CC)n1c(Cc2cccs2)nc2cc(C(=O)N[C@@H](Cc3ccc(Cl)c(Cl)c3)C(=O)O)ccc21 [Example 32, (S)-3-(3,4-Dichloro-phenyl)-2-{[1-(1-ethyl-propyl)-2-thiophen-2-ylmethyl-1H-benzoimidazole-5-carbonyl]-amino}-propionic acid]
18 | 3.21 µM | C[C@@H]1CCCC[C@H]1n1c(Cc2cccs2)nc2cc(C(=O)NC(CC3CCC(C)(C)CC3)C(=O)O)ccc21 (stereo partly drawn) [Example 33, 3-(4,4-Dimethyl-cyclohexyl)-2-{[1-((1R,2R)-2-methyl-cyclohexyl)-2-thiophen-2-ylmethyl-1H-benzoimidazole-5-carbonyl]-amino}-propionic acid]
19 | 0.489 µM | CCC(CC)n1c(Cc2cccs2)nc2cc(C(=O)NC3(C(=O)O)CCC(C)CC3)ccc21 (stereo not drawn) [Example 34, 1-{[1-(1-Ethyl-propyl)-2-thiophen-2-ylmethyl-1H-benzoimidazole-5-carbonyl]-amino}-4-methyl-cyclohexanecarboxylic acid]
20 | 0.291 µM | CC1CCC(NC(=O)c2ccc3c(c2)nc(Cc2cccs2)n3[C@@H]2CCCC[C@H]2C)(C(=O)O)CC1 (stereo partly drawn) [Example 35, 4-Methyl-1-{[1-((1R,2R)-2-methyl-cyclohexyl)-2-thiophen-2-ylmethyl-1H-benzoimidazole-5-carbonyl]-amino}-cyclohexanecarboxylic acid]
21 | 1.26 µM | CCC(CC)n1c(Cc2cccs2)nc2cc(C(=O)NC(CC3CCC(C)CC3)C(=O)O)ccc21 (stereo not drawn) [Example 36, 2-{[1-(1-Ethyl-propyl)-2-thiophen-2-ylmethyl-1H-benzoimidazole-5-carbonyl]-amino}-3-(4-methyl-cyclohexyl)-propionic acid]
22 | 0.886 µM | C[C@@H]1CCCC[C@H]1n1c(Cc2cncs2)nc2cc(C(=O)N[C@@H](CC3CCCCC3)C(=O)O)ccc21 [Example 37, (S)-3-Cyclohexyl-2-{[1-((1R,2R)-2-methyl-cyclohexyl)-2-thiazol-5-ylmethyl-1H-benzoimidazole-5-carbonyl]-amino}-propionic acid]
23 | 0.115 µM | C[C@@H]1CCCC[C@H]1n1c(Cc2cccs2)nc2cc(C(=O)NC3(C(=O)O)CCCCC3)ccc21 [Example 38, 1-{[1-((1R,2R)-2-Methyl-cyclohexyl)-2-thiophen-2-ylmethyl-1H-benzoimidazole-5-carbonyl]-amino}-cyclohexanecarboxylic acid]
24 | 1.14 µM | CCC(CC)n1c(Cc2cccs2)nc2cc(C(=O)NC(CC3CCCCCC3)C(=O)O)ccc21 (stereo not drawn) [Example 39, 3-Cycloheptyl-2-{[1-(1-ethyl-propyl)-2-thiophen-2-ylmethyl-1H-benzoimidazole-5-carbonyl]-amino}-propionic acid]

— patent US9156796B2, “Benzoimidazole-carboxylic acid amide derivatives as APJ receptor modulators” (SANOFI, priority 2013, dated 2015)
